Source: US20240209053A1 (Protagonist Therapeutics, Inc., priority 2021, published 2024)
Numbered stars: 1 amine (or outer) side, 2 acyl side, 3 side chain; on linkers, the order of the positions; unused ones are H or OH. Bridge positions count the residues as written; N and C are the ends. Square brackets hold non-standard residues; d marks the D form. Side chains are listed from the residue outwards. Peptide text beside a SMILES is read from it. * marks the point of attachment. Dip = N[C@H](C(=O)O)C(c1ccccc1)c1ccccc1; Hag = O=C([C@H](CCC=[*:3])N[*:1])[*:2]; Palmitoyl = CCCCCCCCCCCCCCCC(=O)*; tBuAla = CC(C)(C)C[C@H](N)C(=O)O; β3hF = N[C@H](CC(=O)O)Cc1ccccc1; NMeL = CN[C@@H](CC(C)C)C(=O)O; Isovaleryl = CC(C)CC(=O)*; Ahx = NCCCCCC(=O)O

How the values were obtained:
[1] = biological target: T1, human ferroportin (SLC40A1) (Homo sapiens, UniProt Q9NP59); experiment: FPN activity assay: internalization/degradation of ferroportin-GFP in stably transfected HEK293 cells (decrease in GFP fluorescence); type: cell-based; details: compound incubated at least 18 hours
T1 sequence (Q9NP59 1-571): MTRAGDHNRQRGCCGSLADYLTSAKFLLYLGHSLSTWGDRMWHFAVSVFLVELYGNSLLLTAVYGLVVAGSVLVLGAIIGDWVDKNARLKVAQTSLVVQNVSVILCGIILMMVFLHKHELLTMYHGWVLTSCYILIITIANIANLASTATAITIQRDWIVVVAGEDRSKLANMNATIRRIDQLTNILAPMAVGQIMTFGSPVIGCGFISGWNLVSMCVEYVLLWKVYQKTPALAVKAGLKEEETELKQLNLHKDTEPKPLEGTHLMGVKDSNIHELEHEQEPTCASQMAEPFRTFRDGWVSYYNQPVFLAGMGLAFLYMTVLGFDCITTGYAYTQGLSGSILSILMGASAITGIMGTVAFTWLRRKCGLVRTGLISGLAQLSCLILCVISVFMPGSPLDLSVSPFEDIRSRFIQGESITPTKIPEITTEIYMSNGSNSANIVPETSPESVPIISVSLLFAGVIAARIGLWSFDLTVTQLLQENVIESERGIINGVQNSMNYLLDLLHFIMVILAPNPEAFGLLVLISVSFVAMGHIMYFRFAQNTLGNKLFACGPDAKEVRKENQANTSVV
How it was run: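 HEK293 cells stably expressing human ferroportin C-terminally fused to GFP were exposed to peptides for at least 18 h, at most 24 h. Internalization/degradation read as loss of GFP fluorescence; EC50 derived. Retro-inverse mini-hepcidin peptides used as control standards.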

ferroportin = biological target: T2, ferroportin (Homo sapiens, UniProt Q9NP59); experiment: T47D cell-based ferroportin internalization assay in presence of 0.5% mouse serum albumin (MSA); details: T47D cells
T2 sequence (Q9NP59 1-571): T1 sequence (Q9NP59 1-571)
Experimental: The potency of the peptides in causing ferroportin internalization was evaluated in a T47D cell-based assay. […] In this internalization assay, the potency of the test peptides was evaluated in presence of serum albumin which is the main protein component in the blood. T47D cells were maintained in RPMI media (containing required amount of fetal bovine serum) and regularly sub-cultured. In preparation for the assay, the cells were seeded in 96-well plates at a density of 80-100 k cells per well in 100 ul volume and allowed to rest overnight. On the next day, test peptides were first prepared in dilution series (10-point series, starting concentration of ˜5 μM, typically 3-4×fold dilution steps), all with 0.5% mouse serum albumin (MSA purified from mouse serum; Sigma, A3139). The test peptide dilution series were allowed to incubate at room temperature for 30 min. Then the media was aspirated from the 96-well cell plate and test peptide dilution series were added. After 1 hr incubation, the media with test peptides was aspirated out and AF647-conjugated detection peptide was added at fixed concentration of 200 nM. The AF647-conjugated detection peptide was previously verified to bind to ferroportin and cause its internalization. The cells were washed again after a 2 hr incubation in preparation for flow cytometry analysis. The Median Fluorescence Intensity (MFI) of the AF647-positive population was measured (after removing dead cells and non-singlets from the analysis). The MFI values were used to generate a dose-response curve and obtain IC50 potencies for the test peptides. The IC50 potencies were calculated by using 4-parameter non-linear fitting function in Graphpad Prism (Table 6A).

Row | SMILES | IC50 [1] [nM] | IC50 (ferroportin) [nM]
1 | CCCCCCCCCCCCCCCC(=O)NCCCCCC(=O)NCCCC[C@H](NC(=O)C[C@H](Cc1ccccc1)NC(=O)[C@@H]1CCC=CCC[C@H](NC(=O)CC(C)C)C(=O)N[C@@H]([C@@H](C)O)C(=O)N[C@@H](Cc2c[nH]cn2)C(=O)N[C@@H](C(c2ccccc2)c2ccccc2)C(=O)N2CCC[C@H]2C(=O)N[C@@H](C)C(=O)N[C@@H]([C@@H](C)CC)C(=O)N1)C(=O)N[C@@H](C)C(N)=O [Compd 48] (Isovaleryl-[Hag]TH[Dip]PAI[Hag][β3hF]K([Ahx-Palmitoyl])A-NH2; staple 1-8) | 10 to 100 | 10 to 100
2 | CCCCCCCCCCCCCCCC(=O)NCCCCCC(=O)NCCCC[C@H](NC(=O)C[C@H](Cc1ccccc1)NC(=O)[C@@H]1CCC=CCC[C@H](NC(=O)CC(C)C)C(=O)N(C)[C@@H]([C@@H](C)O)C(=O)N[C@@H](Cc2c[nH]cn2)C(=O)N[C@@H](C(c2ccccc2)c2ccccc2)C(=O)N2CCC[C@H]2C(=O)N[C@@H](C)C(=O)N[C@@H]([C@@H](C)CC)C(=O)N1)C(=O)N[C@H](CCCCN)C(N)=O [Compd 49] | 10 to 100 | 100 to 500
3 | CCCCCCCCCCCCCCCC(=O)NCCCCCC(=O)NCCCC[C@H](NC(=O)C[C@H](Cc1ccccc1)NC(=O)[C@@H]1CCC=CCC[C@H](NC(=O)CC(C)C)C(=O)N[C@@H]([C@@H](C)O)C(=O)N[C@@H](Cc2c[nH]cn2)C(=O)N[C@@H](C(c2ccccc2)c2ccccc2)C(=O)N2CCC[C@H]2C(=O)N(C)[C@@H](C)C(=O)N[C@@H]([C@@H](C)CC)C(=O)N1)C(=O)N[C@H](CCCCN)C(N)=O [Compd 52] | 10 to 100 | 10 to 100
4 | CCCCCCCCCCCCCCCC(=O)NCCCCCC(=O)NCCCC[C@H](NC(=O)C[C@H](Cc1ccccc1)NC(=O)[C@@H]1CCC=CCC[C@H](NC(=O)CC(C)C)C(=O)N[C@@H]([C@@H](C)O)C(=O)N[C@@H](Cc2c[nH]cn2)C(=O)N[C@@H](C(c2ccccc2)c2ccccc2)C(=O)N2CCC[C@H]2C(=O)N[C@@H](C)C(=O)N(C)[C@@H](CC(C)C)C(=O)N1)C(=O)N[C@H](CCCCN)C(N)=O [Compd 53] (Isovaleryl-[Hag]TH[Dip]PA[NMeL][Hag][β3hF]K([Ahx-Palmitoyl])[dK]-NH2; staple 1-8) | 100 to 500 | 10 to 100
5 | CCCCCCCCCCCCCCCC(=O)NCCCCCC(=O)NCCCC[C@H](NC(=O)[C@H](Cc1ccccc1)N(C)C(=O)[C@@H]1CCC=CCC[C@H](NC(=O)CC(C)C)C(=O)N[C@@H]([C@@H](C)O)C(=O)N[C@@H](Cc2c[nH]cn2)C(=O)N[C@@H](C(c2ccccc2)c2ccccc2)C(=O)N2CCC[C@H]2C(=O)N[C@@H](C)C(=O)N[C@@H]([C@@H](C)CC)C(=O)N1)C(=O)N[C@H](CCCCN)C(N)=O [Compd 54] | 10 to 100 | 100 to 500
6 | CCCCCCCCCCCCCCCC(=O)NCCCCCC(=O)NCCCC[C@@H](C(=O)N[C@H](CCCCN)C(N)=O)N(C)C(=O)C[C@H](Cc1ccccc1)NC(=O)[C@@H]1CCC=CCC[C@H](NC(=O)CC(C)C)C(=O)N[C@@H]([C@@H](C)O)C(=O)N[C@@H](Cc2c[nH]cn2)C(=O)N[C@@H](C(c2ccccc2)c2ccccc2)C(=O)N2CCC[C@H]2C(=O)N[C@@H](C)C(=O)N[C@@H]([C@@H](C)CC)C(=O)N1 [Compd 55] | 1 to 10 | 10 to 100
7 | CCCCCCCCCCCCCCCC(=O)NCCCCCC(=O)NCCCC[C@H](NC(=O)C[C@H](Cc1ccccc1)NC(=O)[C@@H]1CCC=CCC[C@H](NC(=O)CC(C)C)C(=O)N[C@@H]([C@@H](C)O)C(=O)N[C@@H](Cc2c[nH]cn2)C(=O)N[C@@H](C(c2ccccc2)c2ccccc2)C(=O)N2CCC[C@H]2C(=O)N[C@@H](C)C(=O)N[C@@H]([C@@H](C)CC)C(=O)N1)C(=O)N(C)[C@H](CCCCN)C(N)=O [Compd 56] | 1 to 10 | 10 to 100
8 | CCCCCCCCCCCCCCCC(=O)NCCCCCC(=O)NCCCC[C@H](NC(=O)C[C@H](Cc1ccccc1)NC(=O)[C@@H]1CCC=CCC[C@H](NC(=O)CC(C)C)C(=O)N[C@@H]([C@@H](C)O)C(=O)N[C@@H](Cc2c[nH]cn2)C(=O)N[C@@H](C(c2ccccc2)c2ccccc2)C(=O)N2CCC[C@H]2C(=O)N[C@@H](CC(C)(C)C)C(=O)N[C@@H]([C@@H](C)CC)C(=O)N1)C(=O)N[C@H](CCCCN)C(N)=O [Compd 62] (Isovaleryl-[Hag]TH[Dip]P[tBuAla]I[Hag][β3hF]K([Ahx-Palmitoyl])[dK]-NH2; staple 1-8) | 10 to 100 | 1 to 10
9 | CCCCCCCCCCCCCCCC(=O)NCCCCCC(=O)NCCCC[C@H](NC(=O)C[C@H](Cc1ccccc1)NC(=O)[C@@H]1CCC=CCC[C@H](NC(=O)CC(C)C)C(=O)N[C@@H]([C@@H](C)O)C(=O)N[C@@H](Cc2c[nH]cn2)C(=O)N[C@@H](C(c2ccccc2)c2ccccc2)C(=O)N2CCC[C@H]2C(=O)N[C@@H](C)C(=O)N[C@@H](CC(C)(C)C)C(=O)N1)C(=O)N[C@H](CCCCN)C(N)=O [Compd 63] (Isovaleryl-[Hag]TH[Dip]PA[tBuAla][Hag][β3hF]K([Ahx-Palmitoyl])[dK]-NH2; staple 1-8) | 1 to 10 | 1 to 10
10 | CCCCCCCCCCCCCCCC(=O)NCCCCCC(=O)NCCCC[C@H](NC(=O)[C@H](CC(C)(C)C)NC(=O)[C@@H]1CCC=CCC[C@H](NC(=O)CC(C)C)C(=O)N[C@@H]([C@@H](C)O)C(=O)N[C@@H](Cc2c[nH]cn2)C(=O)N[C@@H](C(c2ccccc2)c2ccccc2)C(=O)N2CCC[C@H]2C(=O)N[C@@H](C)C(=O)N[C@@H]([C@@H](C)CC)C(=O)N1)C(=O)N[C@H](CCCCN)C(N)=O [Compd 64] (Isovaleryl-[Hag]TH[Dip]PAI[Hag][tBuAla]K([Ahx-Palmitoyl])[dK]-NH2; staple 1-8) | 10 to 100 | 10 to 100
11 | CCCCCCCCCCCCCCCC(=O)NCCCCCC(=O)NCCCC[C@H](NC(=O)C[C@H](Cc1ccccc1)NC(=O)[C@@H]1CCC=CCC[C@H](NC(=O)CC(C)C)C(=O)N[C@@H]([C@@H](C)O)C(=O)N[C@@H](Cc2c[nH]cn2)C(=O)N[C@@H](C(c2ccccc2)c2ccccc2)C(=O)N2CCC[C@H]2C(=O)N[C@@H](C)C(=O)N[C@@H]([C@@H](C)CC)C(=O)N1)C(=O)N[C@@H](CC(C)(C)C)C(N)=O [Compd 65] | 10 to 100 | 1 to 10
12 | CCCCCCCCCCCCCCCC(=O)NCCCCCC(=O)NCCCC[C@H](NC(=O)C[C@H](Cc1ccccc1)NC(=O)[C@@H]1CCCC=CCC[C@@H](NC(=O)CC(C)C)C(=O)N[C@@H]([C@@H](C)O)C(=O)N[C@@H](Cc2c[nH]cn2)C(=O)N[C@@H](C(c2ccccc2)c2ccccc2)C(=O)N2CCC[C@H]2C(=O)N[C@@H](C)C(=O)N[C@@H]([C@@H](C)CC)C(=O)N1)C(=O)N[C@H](CCCCN)C(N)=O [Compd 67] | 1 to 10 | 10 to 100
13 | CCCCCCCCCCCCCCCC(=O)NCCCCCC(=O)NCCCC[C@H](NC(=O)C[C@H](Cc1ccccc1)NC(=O)[C@@H]1CCC=CCC[C@@H](NC(=O)CC(C)C)C(=O)N[C@@H]([C@@H](C)O)C(=O)N[C@@H](Cc2c[nH]cn2)C(=O)N[C@@H](C(c2ccccc2)c2ccccc2)C(=O)N2CCC[C@H]2C(=O)N[C@@H](C)C(=O)N[C@@H]([C@@H](C)CC)C(=O)N1)C(=O)N[C@H](CCCCN)C(N)=O [Compd 68] | 10 to 100 | 100 to 500
14 | CCCCCCCCCCCCCCCC(=O)NCCCCCC(=O)NCCCC[C@H](NC(=O)C[C@H](Cc1ccccc1)NC(=O)[C@@H]1CCC=CCCC[C@@H](NC(=O)CC(C)C)C(=O)N[C@@H]([C@@H](C)O)C(=O)N[C@@H](Cc2c[nH]cn2)C(=O)N[C@@H](C(c2ccccc2)c2ccccc2)C(=O)N2CCC[C@H]2C(=O)N[C@@H](C)C(=O)N[C@@H]([C@@H](C)CC)C(=O)N1)C(=O)N[C@H](CCCCN)C(N)=O [Compd 69] | 1 to 10 | > 500
